How the values were obtained:
αllbβ3 integrin = molecular target: T1, αllbβ3 integrin (Homo sapiens, UniProt P05106+P08514); experiment: ELISA: inhibition of binding of αllbβ3 integrin membrane preparation to coated extracellular matrix protein; conditions: human platelet membrane preparation
T1 construct: Human platelet membrane preparations were used as a source of αllbβ3 integrin; from tissue; host or cells: human platelets (membrane preparation)
Outline: (§1)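 Integrin sources were human platelet membrane preparations for αIIbβ3 and WM-115 cells for αVβ3, each preincubated with test compound. Binding to fibrinogen- or vitronectin-coated plates (10 µg/well) was quantified with an anti-integrin β3 antibody and an HRP-coupled secondary antibody using colorimetric detection.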

αVβ3 integrin = molecular target: T2, αVβ3 integrin (Homo sapiens, UniProt P05106+P06756); experiment: ELISA: inhibition of binding of αVβ3 integrin (source WM-115 cell line) to coated extracellular matrix protein; conditions: WM-115 cell line as integrin source
T2 construct: the cell line WM-115 was used as a source of αVβ3 integrin; endogenous in cells; host or cells: WM-115 cell line
T2 sequence (P06756 31-889 limits assumed): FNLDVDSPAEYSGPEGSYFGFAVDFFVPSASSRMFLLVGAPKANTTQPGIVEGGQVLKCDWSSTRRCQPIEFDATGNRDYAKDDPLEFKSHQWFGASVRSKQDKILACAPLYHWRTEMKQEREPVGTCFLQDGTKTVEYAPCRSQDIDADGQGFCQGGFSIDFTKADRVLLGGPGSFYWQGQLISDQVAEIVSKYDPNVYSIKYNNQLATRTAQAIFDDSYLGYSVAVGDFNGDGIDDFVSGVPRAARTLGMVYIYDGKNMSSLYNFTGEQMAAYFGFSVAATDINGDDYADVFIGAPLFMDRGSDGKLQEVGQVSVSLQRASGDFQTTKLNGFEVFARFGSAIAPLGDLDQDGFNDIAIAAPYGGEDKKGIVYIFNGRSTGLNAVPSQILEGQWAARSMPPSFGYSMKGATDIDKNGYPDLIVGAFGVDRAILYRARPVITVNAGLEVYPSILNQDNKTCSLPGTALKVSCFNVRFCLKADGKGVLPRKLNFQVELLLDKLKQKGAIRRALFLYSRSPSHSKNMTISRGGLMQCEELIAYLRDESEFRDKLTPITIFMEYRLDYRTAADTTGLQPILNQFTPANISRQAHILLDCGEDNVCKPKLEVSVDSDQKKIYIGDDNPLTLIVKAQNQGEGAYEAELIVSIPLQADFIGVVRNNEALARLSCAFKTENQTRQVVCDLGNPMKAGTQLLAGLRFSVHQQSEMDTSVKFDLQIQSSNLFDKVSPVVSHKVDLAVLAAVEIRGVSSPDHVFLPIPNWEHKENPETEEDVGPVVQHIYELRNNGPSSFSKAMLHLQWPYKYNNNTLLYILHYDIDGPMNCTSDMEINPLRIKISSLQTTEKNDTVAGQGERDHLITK
T2 sequence (P06756 891-1048 partner limits assumed): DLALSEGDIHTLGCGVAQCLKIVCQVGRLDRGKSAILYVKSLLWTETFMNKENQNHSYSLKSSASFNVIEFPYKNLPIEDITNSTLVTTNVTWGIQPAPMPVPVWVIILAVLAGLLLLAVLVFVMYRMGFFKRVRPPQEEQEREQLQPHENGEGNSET
T2 sequence (P05106 27-788): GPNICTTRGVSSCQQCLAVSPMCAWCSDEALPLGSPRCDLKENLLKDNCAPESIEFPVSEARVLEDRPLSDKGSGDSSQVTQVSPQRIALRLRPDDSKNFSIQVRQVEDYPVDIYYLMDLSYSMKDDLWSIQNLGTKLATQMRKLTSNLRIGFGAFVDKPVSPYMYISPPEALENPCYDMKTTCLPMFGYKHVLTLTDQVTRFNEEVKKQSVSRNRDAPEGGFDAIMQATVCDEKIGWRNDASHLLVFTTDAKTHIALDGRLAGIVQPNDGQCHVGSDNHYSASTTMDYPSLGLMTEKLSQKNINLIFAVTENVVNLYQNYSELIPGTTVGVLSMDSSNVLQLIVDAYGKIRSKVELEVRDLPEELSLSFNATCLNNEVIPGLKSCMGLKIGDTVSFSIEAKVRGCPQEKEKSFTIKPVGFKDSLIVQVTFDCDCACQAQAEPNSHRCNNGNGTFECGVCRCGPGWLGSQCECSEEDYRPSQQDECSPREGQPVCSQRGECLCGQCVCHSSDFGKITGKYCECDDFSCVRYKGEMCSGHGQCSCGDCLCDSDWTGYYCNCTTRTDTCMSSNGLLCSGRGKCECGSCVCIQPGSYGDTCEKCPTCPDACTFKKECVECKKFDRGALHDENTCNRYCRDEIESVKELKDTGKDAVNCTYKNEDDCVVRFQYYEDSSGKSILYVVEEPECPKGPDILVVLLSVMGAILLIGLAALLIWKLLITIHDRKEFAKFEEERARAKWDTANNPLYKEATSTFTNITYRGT
Outline: as §1

T1 sequence (P08514 32-887 limits assumed): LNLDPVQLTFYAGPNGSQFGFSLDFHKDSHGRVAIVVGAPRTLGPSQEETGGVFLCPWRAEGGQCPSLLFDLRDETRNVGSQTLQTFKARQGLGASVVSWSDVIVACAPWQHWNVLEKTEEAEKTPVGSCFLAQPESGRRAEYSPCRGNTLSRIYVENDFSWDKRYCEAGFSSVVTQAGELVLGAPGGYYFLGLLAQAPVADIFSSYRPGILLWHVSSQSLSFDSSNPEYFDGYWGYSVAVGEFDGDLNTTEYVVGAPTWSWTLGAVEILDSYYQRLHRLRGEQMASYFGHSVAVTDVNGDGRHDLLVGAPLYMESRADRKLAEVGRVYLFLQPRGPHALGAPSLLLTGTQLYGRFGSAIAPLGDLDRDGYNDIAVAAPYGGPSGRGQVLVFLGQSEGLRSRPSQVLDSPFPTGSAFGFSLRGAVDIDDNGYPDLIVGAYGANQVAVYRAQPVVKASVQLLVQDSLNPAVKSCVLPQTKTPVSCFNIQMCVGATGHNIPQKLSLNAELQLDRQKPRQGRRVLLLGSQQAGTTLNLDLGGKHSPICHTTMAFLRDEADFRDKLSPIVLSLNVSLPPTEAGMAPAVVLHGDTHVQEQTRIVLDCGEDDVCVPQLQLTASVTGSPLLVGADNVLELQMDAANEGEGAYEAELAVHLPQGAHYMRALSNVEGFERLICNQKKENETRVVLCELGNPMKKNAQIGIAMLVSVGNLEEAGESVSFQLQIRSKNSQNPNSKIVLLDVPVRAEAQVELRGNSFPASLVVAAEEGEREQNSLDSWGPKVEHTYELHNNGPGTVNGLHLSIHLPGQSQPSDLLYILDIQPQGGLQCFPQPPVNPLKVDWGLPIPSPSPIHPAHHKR
T1 sequence (P08514 891-1039 partner limits assumed): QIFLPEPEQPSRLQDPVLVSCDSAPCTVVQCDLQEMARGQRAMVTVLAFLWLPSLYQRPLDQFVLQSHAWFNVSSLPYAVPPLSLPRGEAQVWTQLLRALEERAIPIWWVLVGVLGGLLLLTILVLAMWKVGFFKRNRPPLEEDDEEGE
T1 sequence (P05106 27-788): as the sequence (P05106 27-788) above

Row | SMILES | INHIBITION @ 250 uM RECEPTOR allBb3 SUBSTRATE FIBRINOGEN (αllbβ3 integrin) | INHIBITION 250 uM RECEPTOR allBb3 SUBSTRATE VITRONECTIN (αllbβ3 integrin) | INHIBITION 250 uM RECEPTOR aVb3 SUBSTRATE FIBRINOGEN (αVβ3 integrin)
1 | COC1OC(COCC(=O)O)C(O)C(OCc2ccccc2)C1NC(=O)C1CCC(CN)CC1 (single isomer, unassigned) [Compound 138] | − (0% to 35% inhibition at 250 micromolar) | +++ (81% to 100% inhibition at 250 micromolar) | − (0% to 35% inhibition at 250 micromolar)
2 | Nc1cccc(C(=O)N[C@H]2C(O)O[C@H](COCC(=O)O)[C@@H](O)[C@@H]2OCc2ccc(Br)cc2)c1 (stereo partly drawn) [Compound 2] | ++ (61% to 80% inhibition at 250 micromolar) | +++ (81% to 100% inhibition at 250 micromolar) | ++ (61% to 80% inhibition at 250 micromolar)
3 | Nc1cccc(COC[C@H]2OC[C@H](NC(=O)c3ccccc3)[C@@H](OCC(=O)O)[C@@H]2O)c1 [Compound 56] | − (0% to 35% inhibition at 250 micromolar) | +++ (81% to 100% inhibition at 250 micromolar) | ++ (61% to 80% inhibition at 250 micromolar)
4 | CCOC1O[C@H](COCc2cccc(N)c2)[C@@H](O)[C@H](OCc2ccc(C(=O)O)cc2)[C@H]1NC(=O)c1ccc(Cl)cc1 (stereo partly drawn) [Compound 65] | − (0% to 35% inhibition at 250 micromolar) | +++ (81% to 100% inhibition at 250 micromolar) | − (0% to 35% inhibition at 250 micromolar)
5 | Nc1cccc(COC2C(NC(=O)c3ccc(Cl)cc3)COC(COCC(=O)O)C2O)c1 (stereo not drawn) [Compound 80] | ++ (61% to 80% inhibition at 250 micromolar) | +++ (81% to 100% inhibition at 250 micromolar) | + (36% to 60% inhibition at 250 micromolar)

Reference: patent US20080176936A1, “Classes of Compounds that Interact with Integrins” (priority 2005, published 2008)
